Laboratory results published in paper PMC11220827 (Frontiers in Pharmacology, 2024).
Read-outs that look alike come from different tables or passages of the source.

Columns and labels:
Estrogen pathway = tested on: Estrogen pathway; set-up: method as in ToxCast; details: ref ToxCast; read-out: Estrogen pathway: Receptor binding, AC50; cited from earlier work
PDE4D2 (h) = PDE4D2 (h) (Homo sapiens, UniProt Q08499); experiment: Pharmacology profiling: PDE4D2 (h) (phosphodiesterase 4D); assay type: biochemical
Description: (§1) Cosmetics Europe’s Systemic Toxicity Taskforce (SysTox-TF) has extended the list of targets in an in vitro screen originally described by [Bowes et al. (2012)] to assess the effects of cosmetic chemicals on target molecules. The approach was based on the knowledge that various targets of pharmacological interest have been linked to human adverse drug reactions, and that screening of these has helped the pharma industry in identifying drug candidates with acceptable human safety profiles ([Bowes et al., 2012]; [Scott et al., 2022]). The methods used by the pharma industry were adapted for use in cosmetic chemical NGRA. A final list of 83 target assays were considered suitable for cosmetic chemical safety testing (see Supplementary Materials S1.7). The targets were receptors, ion channels, transporters and enzymes identified by the pharma industry as linked to human adverse drug reactions, supplemented by additional targets that have been reasoned to be linked to systemic toxicities of chemicals in animals. Chemicals that are flagged for a target are tested in follow-up dose-response assays to establish potency of the interaction. […]. [Valentin et al., 2018]; [Dodson et al., 2021]). […].
(§2) assay’s reference compound was set to 100%. For antagonist assays, the basal signal (exposure to fixed concentration of agonist only) was set to 100%. Activity of the samples was scaled accordingly, […]
(§3) Using these graphs, lowest […]
(§4) compound activity for antagonist assays.
(§5) S1.7. Pharmacology profiling assays […]
(§6) reasoned to link to pathological effects. […]
(§7) around the control level. […]
(§8) determine the potency (IC50).
(§9) Supplementary Table S4 Pharmacology profiling assay panel. […]

COX1 (h) = COX1 (h) (Homo sapiens, UniProt P23219); experiment: Pharmacology profiling: COX1 (h); assay type: biochemical
Description: (§10) targets. The list of targets included the original panel of 44 targets (including receptors, ion channels,
(§11) transporters and enzymes) recommended by 4 major pharmaceutical companies as significant
(§12) reasoned to link to pathological effects. Results showing an inhibition or stimulation higher than 50%
(§13) are considered to represent significant effects (i.e. a “hit”).
(§14) and 50% are indicative of weak to moderate effects and results showing an inhibition (or stimulation)
(§15) around the control level. For several targets, additional concentration effect assays were conducted to
(§16) determine the potency (IC50). The concentrations tested (in duplicate) ranged between 30 nM and 100

HepG2 cells [1] = experiment: cells; assay type: cell-based; details: for AC50: Homo sapiens, HepG2, 24 h
HepaRG cells = experiment: Transcriptomics (TempO-Seq, BMD analysis) in HepaRG cells; assay type: cell-based
Description: (§17) These differed with respect to the number of genes passing all filters in each pathway (3 versus 5 genes). […] Therefore, we captured pathways which fulfilled both criteria.
(§18) HepG2 (human hepatoblastoma) , MCF-7 (human breast adenocarcinoma) cells supplied by
(§19) Public Health England European Collection of Cell Cultures (ECACC, Salisbury, UK). Differentiated
(§20) HepaRG cells (HPR116, Lot HPR116239 -TA08) were from Biopredic International (Rennes, France).
(§21) Test chemicals were prepared in DMSO as serial dilutions, resulting in concentrations in media of
(§22) biological replicates were treated with the appropriate dose of co mpound for 24 h prior to cell lysis.
(§23) Biospyder human whole genome panel version 1 (https://biospyder.com).
Gene normalization and analysis
(§24) expression values for each probe were normalized by applying DESEQ2 normalization. A pseudo-
(§25) read-count of 1.0 was added to each normalized expression value, and then the values were log2
(§26) transformed . Analyses performed included Gene and Pathway, Dose Response and Network
(§27) monotonic increasing/decreasing trend were those which confirmed to the criteria : William’s trend
(§28) Those genes were then used in categorical (pathway) analysis for the Gene Ontology (GO) terms and
(§29) REACTOME pathways. Significant dose responsive pathways were determined according to : Fisher’s

HepG2 cells [2] = experiment: Transcriptomics (TempO-Seq, BMD analysis) in HepG2 cells; assay type: cell-based, human
Description: as §17, §18, §19, §20, §21, §22, §23
Gene normalization and analysis
as §24, §25, §26, §27, §28, §29

Aromatase = tested on: Aromatase; set-up: method as in ToxCast; details: ref ToxCast; cited from earlier work; also: key: Pos = positive result; Neg = negative result; Inc = uncertain/inconclusive result
Deiodinase = tested on: Deiodinase; set-up: method as in ToxCast; details: ref ToxCast, cited from earlier work; as to Thyroid pathway: Deiodinase (Not AOP), Call: key: Pos = positive result; Neg = negative result; Inc = uncertain/inconclusive result
MCF-7 cells = experiment: Transcriptomics (TempO-Seq, BMD analysis) in MCF-7 cells; assay type: cell-based, human; details: MCF-7, 24 h
Description: as §17, §18, §19, §20, §21, §22, §23
Gene normalization and analysis
as §24, §25, §26, §27, §28, §29

Adenosine A1 (h) = biological target: T1, Adenosine A1 (h) (Homo sapiens, UniProt P30542); experiment: Pharmacology profiling: Adenosine A1 (h) (antagonist RL); assay type: binding
T1 sequence (P30542 1-326): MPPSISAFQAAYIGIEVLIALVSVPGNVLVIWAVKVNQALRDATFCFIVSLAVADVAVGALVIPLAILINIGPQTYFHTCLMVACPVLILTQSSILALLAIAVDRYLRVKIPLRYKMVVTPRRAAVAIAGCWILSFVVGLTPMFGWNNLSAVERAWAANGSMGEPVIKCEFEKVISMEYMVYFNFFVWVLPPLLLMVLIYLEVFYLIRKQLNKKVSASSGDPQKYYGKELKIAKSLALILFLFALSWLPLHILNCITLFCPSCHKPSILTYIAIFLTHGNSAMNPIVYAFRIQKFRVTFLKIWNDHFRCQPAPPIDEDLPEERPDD
Description: as §10, §11, §12, §13, §14, §15, §16

ER = tested on: ER; set-up: method as in Opera; details: experimental call listed in the Opera output; ref Opera; cited from earlier work
5-HT2B (h) = 5-HT2B (h) (Homo sapiens, UniProt P41595); experiment: Pharmacology profiling: 5-HT2B (h) (agonist RL); assay type: binding
Description: as §1, §2, §3, §4, §5, §6, §7, §8, §9

Monooxygenase = tested on: Monooxygenase; set-up: method as in ToxCast; details: ref ToxCast, cited from earlier work; as to Thyroid pathway: Monooxygenase (Not AOP), Call: key: Pos = positive result; Neg = negative result; Inc = uncertain/inconclusive result
[3] = HepaRG, 24 h, pathway differs per chemical

Chain of 5-HT2B (h) (P41595 whole entry): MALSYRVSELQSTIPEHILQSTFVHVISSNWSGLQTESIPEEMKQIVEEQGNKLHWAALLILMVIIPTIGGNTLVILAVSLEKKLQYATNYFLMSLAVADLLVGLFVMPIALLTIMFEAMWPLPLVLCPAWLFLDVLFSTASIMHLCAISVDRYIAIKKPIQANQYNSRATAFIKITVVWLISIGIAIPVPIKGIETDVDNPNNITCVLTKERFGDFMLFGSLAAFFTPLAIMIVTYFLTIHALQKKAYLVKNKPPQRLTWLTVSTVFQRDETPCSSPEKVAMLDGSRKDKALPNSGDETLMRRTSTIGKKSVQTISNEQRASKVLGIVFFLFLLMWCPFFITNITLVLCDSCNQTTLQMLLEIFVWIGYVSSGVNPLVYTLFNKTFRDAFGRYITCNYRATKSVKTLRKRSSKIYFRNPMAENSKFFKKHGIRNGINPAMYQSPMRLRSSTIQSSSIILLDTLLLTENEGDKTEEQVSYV
Chain of PDE4D2 (h) (Q08499 303-809): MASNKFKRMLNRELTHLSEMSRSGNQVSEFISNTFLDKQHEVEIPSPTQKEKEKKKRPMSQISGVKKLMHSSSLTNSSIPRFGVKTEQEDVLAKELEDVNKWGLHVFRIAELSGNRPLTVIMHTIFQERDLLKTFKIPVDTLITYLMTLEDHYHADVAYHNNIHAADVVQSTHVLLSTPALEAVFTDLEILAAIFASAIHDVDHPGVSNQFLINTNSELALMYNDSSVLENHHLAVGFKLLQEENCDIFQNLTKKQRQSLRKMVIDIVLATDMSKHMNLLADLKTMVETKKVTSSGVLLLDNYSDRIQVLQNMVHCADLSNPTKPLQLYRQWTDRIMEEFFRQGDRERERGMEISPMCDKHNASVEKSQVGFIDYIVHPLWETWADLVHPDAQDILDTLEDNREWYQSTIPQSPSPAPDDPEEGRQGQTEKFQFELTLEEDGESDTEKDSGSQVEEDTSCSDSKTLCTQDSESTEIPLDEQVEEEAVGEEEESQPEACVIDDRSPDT
Chain of COX1 (h) (P23219 24-599): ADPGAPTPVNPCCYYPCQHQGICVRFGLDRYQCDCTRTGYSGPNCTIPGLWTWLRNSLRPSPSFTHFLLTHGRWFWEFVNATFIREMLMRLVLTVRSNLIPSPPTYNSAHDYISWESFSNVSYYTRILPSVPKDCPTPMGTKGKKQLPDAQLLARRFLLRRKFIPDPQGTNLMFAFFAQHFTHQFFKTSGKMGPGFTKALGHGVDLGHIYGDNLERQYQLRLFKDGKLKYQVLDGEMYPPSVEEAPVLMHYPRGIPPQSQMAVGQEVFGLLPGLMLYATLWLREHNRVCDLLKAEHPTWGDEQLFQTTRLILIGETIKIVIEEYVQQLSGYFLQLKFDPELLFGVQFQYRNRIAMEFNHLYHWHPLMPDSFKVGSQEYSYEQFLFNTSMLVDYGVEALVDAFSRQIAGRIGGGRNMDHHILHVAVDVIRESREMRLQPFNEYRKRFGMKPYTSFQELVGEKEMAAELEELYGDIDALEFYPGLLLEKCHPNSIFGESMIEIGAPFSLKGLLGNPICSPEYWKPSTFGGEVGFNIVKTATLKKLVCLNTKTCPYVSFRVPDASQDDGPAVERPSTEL
Description for U2-OS cells: using the U2-OS based CALUX cytotox bioassay. The cytotoxicity of each test chemical was assessed using the U2-OS based cytotoxicity CALUX bioassay. Concentrations causing >20% reduction of luminescence were considered cytotoxic.
cytotoxicity (relative induction in the cytotoxicity CALUX bioassay > 80%) were used for final
evaluation of analysis results.
induction in the cytotox CALUX bioassay > 80%) were used for final evaluation of analysis results.
All analysis results were expressed in molar (M) final in well.
For the analyses in the presence of rat liver S9, 0.03% (v/v) of PB/BNF induced rat liver
S9 mix (including NADPH and an NADPH-regenerating system) was added to the cells directly after
addition of the compounds, which remained there for the duration of the exposure period (24 h) (van

O=c1c(-c2ccc(O)cc2)coc2cc(O)cc(O)c12 [Genistein, 5,7-DIHYDROXY-3-(4-HYDROXYPHENYL)-4-BENZOPYRONE]
AC50 (Estrogen pathway): 0.01 µM
IC50 (PDE4D2 (h)): 0.738 µM
inhibition at 10 µM (PDE4D2 (h); read-out: PDE4D2 (h) (phosphodiesterase 4D): % inhibition @10 µM): 87%
IC50 (COX1 (h)): 7.69 µM
AhR Translocation: Effect (HepG2 cells [1]): increase
Apoptosis & necrosis: caspase 3/7: Effect (HepG2 cells [1]): increase
Apoptosis & necrosis: cell cycle arrest: Effect (HepG2 cells [1]): decrease
Cellular ATP: Effect (HepG2 cells [1]): decrease
DNA damage: Phospho-p53: Effect (HepG2 cells [1]): increase
DNA damage: p-H2AX: Effect (HepG2 cells [1]): increase
ER stress panel 1: ER integrity: Effect (HepG2 cells [1]): increase
ER stress panel 1: XBP1: Effect (HepG2 cells [1]): increase
ER stress panel 2: CHOP: Effect (HepG2 cells [1]): increase
Inflammation & pH: HIF1α: Effect (HepG2 cells [1]): increase
Inflammation & pH: ICAM-1: Effect (HepG2 cells [1]): increase
Inflammation & pH: intracellular pH: Effect (HepG2 cells [1]): increase
Metal stress: MTF1: Effect (HepG2 cells [1]): decrease
Mitochondrial mass: Effect (HepG2 cells [1]): increase
Mitochondrial membrane potential: Effect (HepG2 cells [1]): decrease
Nuclear size: Effect (HepG2 cells [1]): increase
Osmotic & heat shock: NFAT: Effect (HepG2 cells [1]): increase
Oxidative stress: HMOX1: Effect (HepG2 cells [1]): increase
Oxidative stress: NRF2: Effect (HepG2 cells [1]): increase
Seahorse assay: Extracellular acidification rate (ECAR): Effect (HepG2 cells [1]): decrease
Seahorse assay: oxygen consumption rate (OCR): Effect (HepG2 cells [1]): decrease
Seahorse assay: reserve capacity: Effect (HepG2 cells [1]): decrease
AC50 (HepG2 cells [1]; read-out: AhR Translocation: AC50): > 100 µM
AC50 (HepG2 cells [1]; read-out: Apoptosis & necrosis: caspase 3/7: AC50): > 100 µM
AC50 (HepG2 cells [1]; read-out: Apoptosis & necrosis: cell cycle arrest: AC50): > 100 µM
AC50 (HepG2 cells [1]; read-out: Cellular ATP: AC50): > 100 µM
AC50 (HepG2 cells [1]; read-out: DNA damage: Phospho-p53: AC50): > 100 µM
AC50 (HepG2 cells [1]; read-out: DNA damage: p-H2AX: AC50): > 100 µM
AC50 (HepG2 cells [1]; read-out: ER stress panel 1: ER integrity: AC50): > 100 µM
AC50 (HepG2 cells [1]; read-out: ER stress panel 1: XBP1: AC50): 40.4 µM
AC50 (HepG2 cells [1]; read-out: ER stress panel 2: CHOP: AC50): > 100 µM
AC50 (HepG2 cells [1]; read-out: Inflammation & pH: HIF1α: AC50): > 100 µM
AC50 (HepG2 cells [1]; read-out: Inflammation & pH: ICAM-1: AC50): > 100 µM
AC50 (HepG2 cells [1]; read-out: Inflammation & pH: intracellular pH: AC50): > 100 µM
AC50 (HepG2 cells [1]; read-out: Metal stress: MTF1: AC50): > 100 µM
AC50 (HepG2 cells [1]; read-out: Mitochondrial mass: AC50): > 100 µM
AC50 (HepG2 cells [1]; read-out: Mitochondrial membrane potential: AC50): 69.6 µM
AC50 (HepG2 cells [1]; read-out: Nuclear size: AC50): > 100 µM
AC50 (HepG2 cells [1]; read-out: Osmotic & heat shock: NFAT: AC50): > 100 µM
AC50 (HepG2 cells [1]; read-out: Oxidative stress: HMOX1: AC50): > 100 µM
AC50 (HepG2 cells [1]; read-out: Oxidative stress: NRF2: AC50): > 100 µM
AC50 (HepG2 cells [1]; read-out: Seahorse assay: Extracellular acidification rate (ECAR): AC50): > 100 µM
AC50 (HepG2 cells [1]; read-out: Seahorse assay: oxygen consumption rate (OCR): AC50): > 100 µM
AC50 (HepG2 cells [1]; read-out: Seahorse assay: reserve capacity: AC50): > 100 µM
AhR Translocation: MEC (HepG2 cells [1]; human, 24 h): 51.2 µM
Apoptosis & necrosis: caspase 3/7: MEC (HepG2 cells [1]; human, 24 h): 49.8 µM
Apoptosis & necrosis: cell cycle arrest: MEC (HepG2 cells [1]; human, 24 h): 35.8 µM
Cell stress LOEC, ↓ in mitochondrial membrane potential (HepG2 cells [1]; human, 24 h): 11.6 µM
Cellular ATP: MEC (HepG2 cells [1]; human, 24 h): 31.5 µM
DNA damage: Phospho-p53: MEC (HepG2 cells [1]; human, 24 h): 22.8 µM
DNA damage: p-H2AX: MEC (HepG2 cells [1]; human, 24 h): 13.4 µM
ER stress panel 1: ER integrity: MEC (HepG2 cells [1]; human, 24 h): 23.3 µM
ER stress panel 1: XBP1: MEC (HepG2 cells [1]; human, 24 h): 40.9 µM
ER stress panel 2: CHOP: MEC (HepG2 cells [1]; human, 24 h): 69.0 µM
Inflammation & pH: HIF1α: MEC (HepG2 cells [1]; human, 24 h): 44.8 µM
Inflammation & pH: ICAM-1: MEC (HepG2 cells [1]; human, 24 h): 34.4 µM
Inflammation & pH: intracellular pH: MEC (HepG2 cells [1]; human, 24 h): 50.6 µM
Metal stress: MTF1: MEC (HepG2 cells [1]; human, 24 h): 25.5 µM
Mitochondrial mass: MEC (HepG2 cells [1]; human, 24 h): 15.0 µM
Mitochondrial membrane potential: MEC (HepG2 cells [1]; human, 24 h): 11.6 µM
Nuclear size: MEC (HepG2 cells [1]; human, 24 h): 25.2 µM
Osmotic & heat shock: NFAT: MEC (HepG2 cells [1]; human, 24 h): 49.4 µM
Oxidative stress: HMOX1: MEC (HepG2 cells [1]; human, 24 h): 29.9 µM
Oxidative stress: NRF2: MEC (HepG2 cells [1]; human, 24 h): 29.9 µM
Seahorse assay: Extracellular acidification rate (ECAR): MEC (HepG2 cells [1]; human, 24 h): 27.7 µM
Seahorse assay: oxygen consumption rate (OCR): MEC (HepG2 cells [1]; human, 24 h): 41.5 µM
Seahorse assay: reserve capacity: MEC (HepG2 cells [1]; human, 24 h): 34.8 µM
BMD/NOEC, gene pathway deregulation (HepaRG cells; HepaRG cells): 40.0 nM
Lowest median BMD, 3 genes passing all filters (HepaRG cells; [3]): 0.040 µM
Lowest median BMD, >5 genes passing all filters (HepaRG cells; [3]): 0.051 µM
BMD relating to estrogen effects (HepaRG cells; HepaRG, 24 h, pathway named in the cell): 0.11- Estrogen-dependent gene expression ↑ µM
Lowest median BMD, >5 genes passing all filters (HepG2 cells [2]; HepG2, 24 h, pathway differs per chemical): 15.7 µM
BMD relating to estrogen effects (HepG2 cells [2]; HepG2, 24 h, pathway named in the cell): 53.8 - Estrogen-dependent gene expression ↓ µM
BMD/NOEC, gene pathway deregulation (HepG2 cells [2]; HepG2 cells): 15.7 µM
Steroidogenesis: Aromatase, Call (Aromatase): Neg
Thyroid pathway: Deiodinase (Not AOP), Call (Deiodinase): Pos
AC50 (Deiodinase; read-out: Thyroid pathway: Deiodinase (Not AOP), AC50): 2.43 µM
Lowest median BMD, 3 genes passing all filters (MCF-7 cells; pathway differs per chemical): 0.0065 µM
Lowest median BMD, >5 genes passing all filters (MCF-7 cells; pathway differs per chemical): 0.051 µM
BMD relating to estrogen effects (MCF-7 cells; pathway named in the cell): 60.1 - estrogen 2-hydroxylase activity ↓ µM
Cytotoxicity LOEC, +S9 (U2-OS cells; +S9 (rat liver)): >−5 Log M
Cytotoxicity LOEC, −S9 (U2-OS cells; −S9): >−5 Log M
IC50 (Adenosine A1 (h)): 9.12 µM
inhibition at 10 µM (Adenosine A1 (h); read-out: Adenosine A1 (h) (antagonist RL): % inhibition @10 µM): 53.5%
ER agonist, Experimental (ER): Active (medium)
ER antagonist, Experimental (ER): Active (weak)
ER binding, Experimental (ER): Active (medium)
IC50 (5-HT2B (h)): 0.682 µM
inhibition at 10 µM (5-HT2B (h); read-out: 5-HT2B (h) (agonist RL): % inhibition @10 µM): 91.9%
Thyroid pathway: Monooxygenase (Not AOP), Call (Monooxygenase): Pos
AC50 (Monooxygenase; read-out: Thyroid pathway: Monooxygenase (Not AOP), AC50): 9.44 µM
